The numbers were not newly measured in patent publication US20040197905A1, “Methods and devices for monitoring cellular metabolism in microfluidic cell-retaining chambers” (Thermogenic Imagining, priority 2003, published 2004), which cites them from elsewhere.

Where two headings read alike, the source gives them in different places.

For the substance carboxy SNARF-1, the pKa is, setting by setting: (at 37° C.) 7.3-7.4; (at room temperature) “about 7.5”.
